Key:
HK2 cells (人肾小管上皮细胞) = experiment: MTT assay of cell proliferation, normal cells HK2 (24 h); type: cell-based, human; conditions: for toxicity / side effect on HK2: in words; for toxicity to normal cells: summary statement
[1] = Earlier antibacterial test; conditions: initial tests
HCT-8 cells [2] = experiment: HCT-8 mitochondrial membrane potential, JC-1 flow cytometry (24 h); type: cell-based, human; conditions: HCT-8, 24 h; for mitochondrial membrane potential: with rising concentration (0-4 μM), versus control, P<0.01
HCT-8 cells [3] = experiment: ROS in HCT-8 cells, DCFH-DA flow cytometry (24 h); type: cell-based, human; conditions: HCT-8, 24 h; for ROS content compared with control: P>0.05
HCT-8 cells [4] = experiment: HCT-8 apoptosis, Annexin V-FITC/PI flow cytometry (24 h); type: cell-based, human; conditions: for concentration dependence of apoptosis / average apoptosis rate / early apoptosis: HCT-8, 24 h; for early apoptosis: versus control
[5] = test system: 3 tumour cells HCT-8, SKVO3, MCF-7 (3种肿瘤细胞); experiment: MTT assay of cell proliferation, tumour cells (24 h); type: cell-based; conditions: for inhibitory effect on the 3 tumour cells: HCT-8, SKVO3, MCF-7, 24 h, in words (IC50 table is a picture); for killing effect on / toxicity to various tumour cells: summary statement
HCT-8 cells [6] = experiment: MTT assay of cell proliferation, HCT-8 (therapeutic index); type: cell-based, human; conditions: in words
normal cells (正常细胞) = conditions: background statement on LL37; cited from earlier work
tumour (肿瘤) = conditions: background statement on LL37; cited from earlier work

RL25: 氨基酸序列为:RLNRLFRKIRQVIRKFEKGIKEKSK
toxicity / side effect on HK2 (HK2 cells (人肾小管上皮细胞); HK2, 24 h): 对正常细胞的毒性小
toxicity to normal cells compared with LL37 (HK2 cells (人肾小管上皮细胞); HK2, 24 h, versus positive drug LL37): 毒性明显更小
toxicity to normal cells (HK2 cells (人肾小管上皮细胞)): 毒性轻微
antibacterial performance [1]: 较好的抑菌性能
mitochondrial membrane potential (HCT-8 cells [2]): 逐渐降低
ROS content, trend (HCT-8 cells [3]; 0-4 μM): 先升高后降低
ROS content compared with control (HCT-8 cells [3]; 4 μM): 无明显差异
ROS, mean fluorescence intensity (peak) (HCT-8 cells [3]; peak at 1 μM, versus control P<0.01): 4670±91.804
concentration dependence of apoptosis (HCT-8 cells [4]): 明显的浓度依赖性
average apoptosis rate (HCT-8 cells [4]; 1 μM): 29.56%
average apoptosis rate (HCT-8 cells [4]; 2 μM): 37.44%
average apoptosis rate (HCT-8 cells [4]; 4 μM): 55.15%
early apoptosis (HCT-8 cells [4]): 早期凋亡细胞的数目逐渐增加
killing effect compared with SE37 (HCT-8 cells [4]; HCT-8, 4 μM RL25 versus 6 μM SE37): 强于浓度为6μM的SE37
therapeutic index, IC50(HK2)/IC50(tumour cells) ([5]; 3 tumour cells, in words): 较高
therapeutic index compared with SE37 ([5]; 3 tumour cells, versus SE37): 均高于SE37的治疗指数
inhibitory effect on tumour cells compared with LL37 ([5]; 3 tumour cells, versus positive drug LL37): 相近或更好
inhibitory effect on the 3 tumour cells [5]: 很好的抑制效果
killing effect on / toxicity to various tumour cells [5]: 良好的杀伤效果
therapeutic index, IC50(HK2)/IC50(HCT-8) (HCT-8 cells [6]): 较高

SE37: 抗菌肽SE37(其氨基酸序列为:SETRPVLNRLFDKIRQVIRKFEKGIKEKSKRFFDGLL) [reference compound]
toxicity / side effect on HK2 (HK2 cells (人肾小管上皮细胞); HK2, 24 h): 毒副作用也很明显
toxicity to normal cells (HK2 cells (人肾小管上皮细胞)): 毒性均较大
FL1 channel fluorescence (HCT-8 cells [2]; 0-4 μM): 荧光增多
FL2 channel fluorescence (HCT-8 cells [2]; 0-4 μM): 荧光减少
FL1 channel fluorescence signal (HCT-8 cells [2]; 4 μM versus 2 μM): 并未明显增加
mitochondrial membrane potential (HCT-8 cells [2]): 明显降低
ROS content, trend (HCT-8 cells [3]; 0-8 μM): 先升高后降低
ROS content compared with control (HCT-8 cells [3]; 8 μM): 已无明显变化
ROS, mean fluorescence intensity (peak) (HCT-8 cells [3]; peak at 2 μM): 3127.753±96.501
concentration dependence of apoptosis (HCT-8 cells [4]): 一定的浓度依赖性
average apoptosis rate (HCT-8 cells [4]; 3 μM): 27.39%
average apoptosis rate (HCT-8 cells [4]; 6 μM): 36.28%
early apoptosis (HCT-8 cells [4]): 出现明显的早期细胞凋亡
inhibitory effect on the 3 tumour cells [5]: 抑制效果均表现较好
killing effect on / toxicity to various tumour cells [5]: 毒性均较大

LL37: LL37是hCAP-18蛋白中含有37个氨基酸的C端 [reference compound]
toxicity / side effect on HK2 (HK2 cells (人肾小管上皮细胞); HK2, 24 h): 毒副作用也很明显
toxicity to normal cells (normal cells (正常细胞)): 对正常细胞的毒性较大
antitumour effect (tumour (肿瘤)): 良好的抗肿瘤效应
inhibitory effect on the 3 tumour cells [5]: 抑制效果均表现较好
